Key:
C/EBPa = details: cited from earlier work
cortical neurons = assay: Neuronal survival assay of amyloid β neurotoxicity; assay type: cell-based, mouse; details: co-treatment with amyloid β
Protocol: The survival assay of amyloid β neurotoxicity was performed as reported previously^33. At various time periods, neurons were lysed in a cell lysis buffer. Under light microscopy, the numbers of intact nuclei indicating living cells was quantified and expressed relative to the number of cells in the control group without amyloid β treatment.
The brains were dissociated from skulls, meninges removed and cortices isolated. Individual cells were dissociated by incubation with trypsin and DNase (Sigma). Cells were plated on poly-d-lysine (Sigma)-coated 24-well plates at a density of 1.5×10^6 cells/ml in Neurobasal medium (Thermo Fisher Scientific) supplemented with B-27 (Thermo Fisher Scientific), N-2 (Thermo Fisher Scientific), and glutamine (0.5 mM, Thermo Fisher Scientific). Three days after seeding, cultured cells were transfected with siRNAs (60 pmol/24-well) using Lipofactamine 2000 transfection reagent (Thermo Fisher Scientific). Twenty-four hours after transfection, cells were exposed to amyloid β1-42 (5 μM) for the indicated time periods and then processed for subsequent assays. SiRNAs from Santa Cruz are provided as pools consisting of three to five target-specific 19-25 nucleotides siRNAs designed to specifically knockdown the expression of mouse Pax6, c-Myb or E2F1. Silencer Select Pre-designed siRNAs were from Ambion, non-targeting siRNA was used as a negative control. […]

Pax6 and c-Myb = assay: RT-PCR and Western blot of amyloid β-induced Pax6 and c-Myb in cortical neurons; assay type: cell-based, mouse
Protocol: Human brain tissues or mouse cortical neurons were dissolved in ice-cold 1×RIPA buffer (Cell Signaling) with proteinase inhibitor cocktail (Sigma). Proteins were separated on NuPAGE Novex 4-12% Bis-Tris gels (Thermo Fisher Scientific) and transferred to nitrocellulose membranes. Membranes were probed with indicated primary antibodies. The blots were analysed and quantified by densitometry using ImageJ software (Version 1.52t, National Institutes of Health).
Total mRNA was prepared from cell cultures utilizing TRIzol reagent (Thermo Fisher Scientific). Semi-quantitative RT-PCR experiments were performed to examine RNA expression of target genes. Briefly, 2 μg of total RNA was reverse-transcribed using SuperScript First-Strand Synthesis System (Thermo Fisher Scientific). The first-strand cDNA was used as a template. β-actin was used as the normalisation control.
Primary cortical neurons were derived from embryonic day 14.5 (E14.5) C57BL/6 mice^31. The brains were dissociated from skulls, meninges removed and cortices isolated. Individual cells were dissociated by incubation with trypsin and DNase (Sigma). Cells were plated on poly-d-lysine (Sigma)-coated 24-well plates at a density of 1.5×10^6 cells/ml in Neurobasal medium (Thermo Fisher Scientific) supplemented with B-27 (Thermo Fisher Scientific), N-2 (Thermo Fisher Scientific), and glutamine (0.5 mM, Thermo Fisher Scientific). […]

Pax6 promoter = Pax6 promoter luciferase reporter assay in amyloid β-treated cortical neurons; assay type: cell-based, mouse; details: co-treatment with amyloid β
Protocol: Cortical neurons were transfected with luciferase reporter constructs three days after plating. After amyloid β treatment, luciferase activity of a target gene was determined using the dual-luciferase reporter assay system (Promega) in a microplate luminometer. Luciferase activity was normalised against Renilla activity for the transfection efficiency using a pRL Renilla luciferase control reporter construct. Next, experiments were designed to investigate whether the upregulation of Pax6 and c-Myb is associated with an increase in transcriptional activation of their targets. Cortical neurons were transfected with a P6CON luciferase reporter construct, which contained three standard Pax6 binding sites^39 to measure Pax6 binding; a luciferase construct containing the Pax6 P1 promoter^40 to measure Pax6 promoter activation; or with a luciferase construct containing c-Myb binding sites to measure c-Myb binding. The same luciferase assays were then performed after amyloid β treatment.

cdks 1, 2, 4 and 7 = details: in vitro; cited from earlier work
5×FAD mice [1] = assay: Immunofluorescence, Western blot and Aβ deposits in brain of palbociclib-treated 5×FAD mice; assay type: in vivo, mouse
Excerpt: (§1) FIG. 9A-9D show effects of palbociclib on 5×FAD mice model. FIGS. 9A and 9B is a series of immunofluorescent images showing expression of cell cycle marker (Cyclin D1) (9A) and Pax6 (9B). […] FIG. 9D is an image of an autoradiogram of a Western blot and the associated quantitative bar graph showing the relative expression of E2F-1, CDK6, c-Myb, APP, Iba1 and LC3B in palbociclib treatment group compared to controls. FIG. 9E is a series of images of brain tissue showing the relative Aβ deposits in palbociclib treated mouse brain tissue compared to controls. FIG. 9F is a series of images of liver, gallbladder and kidney in palbociclib treated mouse. FIGS. 9G-9J show the effect of palbociclib treatment on learning and memory ability of 5×FAD female mice in morris water maze. FIG. 9G is a schematic diagram of palbociclib administration with 60 mg/(kg*d); 10-month-old wild-type mice (WT) and 5×FAD mice were administrated with solvent (ctrl) and 60 mg/kg/day palbociclib (palb) for 2 months via oral garage; Morris water maze with n(WT-ctrl)=5, n(5×FAD-ctrl)=5, n(5×FAD-palb)=3 were performed.
FIGS. 8A-8E show the effects of palbociclib on 5×FAD mice models.
FIGS. 9A-9D show effects of palbociclib on 5×FAD mice model. FIGS. 9A and 9B is a series of immunofluorescent images showing expression of cell cycle marker (Cyclin D1) (9A) and Pax6 (9B). […] FIG. 9D is an image of an autoradiogram of a Western blot and the associated quantitative bar graph showing the relative expression of E2F-1, CDK6, c-Myb, APP, Iba1 and LC3B in palbociclib treatment group compared to controls. FIG. 9E is a series of images of brain tissue showing the relative […] deposits in palbociclib treated mouse brain tissue compared to controls.

[2] = Images of liver, gallbladder and kidney in palbociclib treated mouse; assay type: in vivo
Excerpt: as §1
FIGS. 9A-9D show effects of palbociclib on 5×FAD mice model. […] FIG. 9D is an image of an autoradiogram of a Western blot and the associated quantitative bar graph showing the relative expression of E2F-1, CDK6, c-Myb, APP, Iba1 and LC3B in palbociclib treatment group compared to controls. […]

293T-APP cell line = assay: Western blot of CDK4 and Cyclin D1 in 293T-APP cell line; assay type: cell-based; details: 10 nM and 50 nM
Excerpt: (§2) Experiments were designed to test the effect of palbociclib on Tau in vitro and in vivo.

5×FAD mice [3] = assay: Morris water maze of palbociclib-treated 5×FAD mice; assay type: in vivo, mouse
Excerpt: as §1
FIGS. 9G-9J show the effect of palbociclib treatment on learning and memory ability of 5×FAD female mice in morris water maze. FIG. 9G is a schematic diagram of palbociclib administration with 60 mg/(kg*d); 10-month-old wild-type mice (WT) and 5×FAD mice were administrated with solvent (ctrl) and 60 mg/kg/day palbociclib (palb) for 2 months via oral garage; Morris water maze with n(WT-ctrl)=5, n(5×FAD-ctrl)=5, n(5×FAD-palb)=3 were performed.

293T-Tau cell line = assay: Western blot of CDK4 and Cyclin D1 in 293T-Tau cell line; assay type: cell-based; details: 10 nM and 50 nM
Excerpt: as §2

[4] = 5×FAD female mice, 60 mg/kg/day oral 2 months

## COc1ccccc1-n1c(/C=C/c2ccc(O)c(O)c2)nc2ccccc2c1=O [ICCB280]
C/EBPa
  induction of C/EBPa: potent inducer

## CN1CC[C@H](c2c(O)cc(O)c3c(=O)cc(-c4ccccc4Cl)oc23)[C@H](O)C1 [flavopiridol]
Cortical neurons
  amyloid β-induced death of cortical neurons: protected cortical neurons against amyloid β-induced death
Pax6 and c-Myb
  amyloid β-induced upregulation of Pax6 and c-Myb mRNA and protein: significantly blocked
Pax6 promoter
  amyloid β-induced activation of the Pax6 promoter: blocked
Cdks 1, 2, 4 and 7
  inhibition of all cdks tested (cdks 1, 2, 4 and 7): potent and specific in vitro inhibition

## CC(=O)c1c(C)c2cnc(Nc3ccc(N4CCNCC4)cn3)nc2n(C2CCCC2)c1=O [palbociclib]
5×FAD mice [1]
  Aβ deposit in brain tissue: relative fewer
  expression of Pax6: decreased expression
  expression of cell cycle marker (Cyclin D1): increased expression
5×FAD mice [1]; treatment group compared to controls
  expression of E2F-1: relative decreased expression
[2]
  side effect (liver, gallbladder and kidney images): no side effect
293T-APP cell line
  expression levels of CDK4 and Cyclin D1: Decreased
5×FAD mice [3]; [4]
  frequency of crossing platform in probe trial: significantly increased
  latency to platform in probe trial: significantly improved to the level of the wild type control
5×FAD mice [3]; mouse, in vivo
  memory and learning of 5×FAD mice: able to improve memory and learning
293T-Tau cell line
  expression levels of CDK4 and Cyclin D1: decreased

Source: patent publication US20240254489A1, “COMPOSITIONS AND METHODS OF TARGETING THE PAX6 SIGNALING PATHWAY TO REDUCE FORMATION OF AMYLOID BETA PLAQUES AND NEUROFIBRILLARY TANGLES” (The University of Hong Kong, priority 2021, published 2024)
